≈ marks a conversion by molar mass, not a printed value. Where “and” joins values, the source holds several entries; their conditions need not be identical. Equal entries are not always repeated.
Experiments:
L1210 (murine leukemia) = test: Disk diffusion assay, zone of inhibition, L1210; assay type: cell-based; conditions: 1 mg/mL
Method: (§1) A disk diffusion assay was performed to define the differential cell killing ability of 15-O-(3′-hydroxy-3′-isopropyl-4′-methylpentanoyl)bruceolide. Seven cell types were assayed: L1210 (ATCC CCL-219) (murine leukemia), CCRF-CEM (ATCC CCL-119) (human leukemia), Colon 38 (murine colon adenocarcinoma), HCT116 (ATCC CCL-247) (human colorectal carcinoma), H125 (human lung carcinoma). The murine and human granulocyte/macrophage progenitor cell line (CFU-GM), served as controls.
(§2) Colon 38 cells (about 1 gram) were cut into small fragments in 15 mL of Hank's Balanced Salt Solution (HBSS) over a 100-mesh sieve and gently forced through by the scissors with HBSS constantly perfusing the sieve. The resulting material was then drawn into and out of a 5 mL syringe without a needle to further disperse the cell clumps. The cell solution was diluted and plated in 0.3% agarose in DMEM plus 10% heat-inactivated Bovine Calf Serum (BCS). For plating of all of the cell types (except controls), the 60 mm plates were first prepared with a hard agar bottom layer (0.6% agar in RPMI-1640 plus 15% BCS).
(§3) A 15 μl sample of each compound was dropped onto a 6.5 mm disk (Baxter filter disks). The disks were allowed to dry overnight and then placed close to the edge of a petri dish. Depending upon the cell type, the dishes were incubated for 7 to 10 days, and examined by an inverted stereo-microscope (10×) for measurement of the zone of inhibition. The zone of inhibition was measured from the edge of the filter disk to the beginning of normal-sized colony formation. The diameter of the filter disk, 6.5 mm, was arbitrarily taken as a zone of 200 units. Compounds that were selective for killing solid tumors, as compared to leukemia or normal cells (“solid tumor selective”) were defined as those compounds which produced a difference in zones between solid tumor cells and either normal or leukemia cells of at least 250 units. The results of this analysis are set forth in Table 4, which illustrates the relative diameters of the zones of inhibition by various drugs on the growth of the respective cell types at various drug dilutions.

[1] = tested on: Colon 38 (murine colon adenocarcinoma); test: Disk diffusion assay, zone of inhibition, Colon 38; zone differentials, potency and product; assay type: cell-based; set-up: key to C38ΔL1210 / C38ΔCFU: difference of zone of inhibition values, in zone units; conditions: for zone of inhibition, Colon 38: 1 mg/mL; for Sum: C38ΔL1210 plus C38ΔCFU; for C38ΔL1210 / C38ΔCFU: difference between zone of inhibition values; for C38ΔL1210: Colon38 vs L1210 leukemia; for C38ΔCFU: Colon38 vs normal cell CFU-GM; for Product: potency multiplied by zone differentials
Method: as §1, §2, §3
The degree of differential sensitivity of several inventive compounds was compared with respect to the Colon38 cell line, the L1210 cell line, and the control CFU-GM cell lines. The degree of differential sensitivity was estimated by calculating the difference between the zone of inhibition values, as determined in Example 6, for the solid tumor compared to either the leukemia (C38ΔL1210) or normal cell (C38ΔCFU).
The potency of each of several inventive compounds was determined by identifying the dilution required to yield an average zone of inhibition of 500 units for the Colon38 cell type. Then the potency and the zone differentials were multiplied to define a “product” (see Table 5), which can be used to rank the compounds tested for their potential for further development; the greater the product value the greater the probability of useful chemotherapeutic utility.

[2] = tested on: HCT116 (human colorectal carcinoma); test: Disk diffusion assay, zone of inhibition, HCT116; assay type: cell-based; conditions: 1 mg/mL
Method: as §1, §2
(§4) HCT116 and H125 cells were maintained in cell culture, and were removed from culture by a trypsin-collagenase-DNAase cocktail. The plating efficiencies of each cell type was sufficiently high that 30,000 cells in 3 mL produced the desired number of colonies (i.e., over 10,000 per plate) in 60 mm plates. This soft agar top layer (0.3% with the serum and media as above) plus the titrated tumor cells were poured into the plates and allowed to solidify.
as §3

[3] = tested on: H125 (human lung carcinoma); test: Disk diffusion assay, zone of inhibition, H125; assay type: cell-based; conditions: 1 mg/mL
Method: as §1, §2, §4, §3

[4] = tested on: CCRF-CEM (human leukemia); test: Disk diffusion assay, zone of inhibition, CCRF-CEM; assay type: cell-based; conditions: 1 mg/mL
Method: as §1, §2, §3

murine CFU-GM = test: Disk diffusion assay, zone of inhibition, murine CFU-GM; assay type: cell-based; conditions: 1 mg/mL
Method: as §1
For CFU-GM cells, the femoral marrow of BD2F1 mice was flushed with MEM alpha (2 mL per femur). The cells were passed through an 18 gauge needle twice and the monodispersed suspension was counted. A total of 1.5×10^6 cells were plated in 3 mL of 0.3% agar with the addition of 10% L cell conditioned media, which provided colony stimulating factor, in MEM-alpha plus 10% BCS. For human CFU-GM, the cells were obtained from Poietic Technologies, Inc. (Gaithersburg, Md.) and washed twice with PBS before being titered and added to the agar mixture. The same cell number, culture conditions, and conditioning factors used with respect to the murine CFU-GM cells were used with the human cells, except that the cultures were assessed after 10 days of incubation.
as §3

HCT-116 cells [5] = test: HCT-116 cytotoxicity, viable cell count by trypan blue; assay type: cell-based, human
HCT-116 cells [6] = test: Clonogenic assay, HCT-116; assay type: cell-based, human; conditions: colonies at 7 days
Method: A clonogenic assay was performed using HCT-116 cells. Specifically, HCT-116 cells were seeded at 200 to 20,000 cells in 60 mm dishes. […] At either 2 hours or 24 hours following drug administration, the drug-containing media was removed, and fresh media without drug was added. In addition, one group of cells was subjected to continuous drug exposure for the entire incubation period. The dishes were incubated for 7 days (at 37° C. and 5% CO2), media was removed, and the colonies were stained with methylene blue. Colonies containing 50 cells or more were counted. The results were normalized to an untreated control. Plating efficiency for the untreated cells was about 90%. Repeat experiments also were carried out to define the cell survival range between 1 (100%) and 10^−3 (0.1%) survival. A survival rate of 10^−1 was chosen as the minimal level that would be required in vivo to achieve therapeutic efficacy against HCT-116 cells in tumor-bearing mice. The clonogenic dose response to 15-O-(3′-hydroxy-3′-isopropyl-4′-methylpentanoyl)bruceolide is illustrated in FIG. 4. The clonogenic dose response to 15-(3-isopropyl-4-methyl-2-pentenoyl)-bruceolide is illustrated in FIG. 5.

SK-N-AS = test: MTT cytotoxicity assay (% kill), SK-N-AS; assay type: cell-based, human; conditions: 1.0 μg/mL, MTT after five days
Method: (§5) The following human tumor cell lines were obtained and cultured in sextuplicate microwells at 37° C. and 5% CO2 in humidified air and in 10% FBS in Eagles MEM: SK—N—FI, SK—N-AS, LS-174T, WiDr, HuTu-80, MCF7, NCI-AR, MES-Sar, and PL-45. Cells from each cell line were separately treated with an amount of one of the compounds of Formula I, II, or III (see Table 1). Cells were exposed to each compound (0.1 μg/mL or 1.0 μg/mL) for one hour or 24 hours, rinsed with drug-free media, and incubated for an additional five days. The number of viable cells after five days was measured using an MTT (3-(4,5-dimethylthiazol-2-yl)-2,5-diphenyltetrazolium bromide) assay (see, e.g., Mosmann, J. Immunol. Methods, 65(1-2), 55-63 (1983)).
(§6) The cytotoxicity of each drug was determined and expressed as the percent of cells killed (“% kill”).

LS-174T = test: MTT cytotoxicity assay (% kill), LS-174T; assay type: cell-based, human; conditions: 1.0 μg/mL, MTT after five days
Method: as §5, §6

[7] = no dilution, 15 μl on disk, 6.5 mm = 200 units

CC1=CC(=O)[C@@H](O)[C@]2(C)[C@H]3[C@@]4(O)OC[C@]35[C@H]([C@@H](C)[C@H]4O)[C@@H](O)C(=O)O[C@@H]5C[C@@H]12 [Glaucarubolone, glaucarubolone]
zone of inhibition, L1210 (L1210 (murine leukemia); dilution 1/100): 0 units
zone of inhibition, L1210 (L1210 (murine leukemia); dilution 1/1000): 0 units
zone of inhibition, L1210 (L1210 (murine leukemia); [7]): 400 units
zone of inhibition, Colon 38 ([1]; dilution 1/10): >1000 units and 600 units
zone of inhibition, Colon 38 ([1]; dilution 1/40): 400 units
zone of inhibition, Colon 38 ([1]; dilution 1/100): 400 units
zone of inhibition, Colon 38 ([1]; dilution 1/1000): 0 units
zone of inhibition, Colon 38 [1, 7]: >1000 units
Sum [1]: 1150 and 800
C38ΔL1210 [1]: 550 and 400
C38ΔCFU [1]: 600 and 400
Product [1]: 4600 and 3600
zone of inhibition, H-116 ([2]; dilution 1/10): 600 units
zone of inhibition, H-116 ([2]; dilution 1/100): 0 units
zone of inhibition, H-116 ([2]; dilution 1/1000): 0 units
zone of inhibition, H-116 [2, 7]: >1000 units
zone of inhibition, H-125 M ([3]; dilution 1/10): 700 units
zone of inhibition, H-125 M ([3]; dilution 1/100): 0 units
zone of inhibition, H-125 M ([3]; dilution 1/1000): 0 units
zone of inhibition, H-125 M [3, 7]: >1000 units
zone of inhibition, CEM ([4]; dilution 1/10): 600 units
zone of inhibition, CEM ([4]; dilution 1/100): 0 units
zone of inhibition, CEM ([4]; dilution 1/1000): 0 units
zone of inhibition, CEM [4, 7]: 900 units
zone of inhibition, murine CFU-GM (murine CFU-GM; dilution 1/10): 0 units
zone of inhibition, murine CFU-GM (murine CFU-GM; dilution 1/40): 0 units
zone of inhibition, murine CFU-GM (murine CFU-GM; dilution 1/100): 0 units
zone of inhibition, murine CFU-GM (murine CFU-GM; dilution 1/1000): 0 units
zone of inhibition, murine CFU-GM (murine CFU-GM; [7]): 50 units
IC90/IC50 (HCT-116 cells [5]; HCT-116): 58
IC50 (HCT-116 cells [5]; Homo sapiens, 72 h, HCT-116, 3 days with compound, viable cells, by interpolation, read-out: IC50): 0.04 µg/mL (≈ 0.101 µM)
IC90 (HCT-116 cells [5]; Homo sapiens, 72 h, HCT-116, 3 days with compound, viable cells, by interpolation, read-out: IC90): 2.3 µg/mL (≈ 5.83 µM)
Concentration Required for 10^−1 Survival Fraction (HCT-116 cells [6]; HCT-116, 2 Hour Exposure): >10 μg/mL
Concentration Required for 10^−1 Survival Fraction (HCT-116 cells [6]; HCT-116, 24 Hour Exposure): 1 × 10^0 μg/mL
Concentration Required for 10^−1 Survival Fraction (HCT-116 cells [6]; HCT-116, Continuous Exposure): 2 × 10^−2 μg/mL

COC(=O)C12OCC34C(CC5C(C)=C(O)C(=O)CC5(C)C3C(O)C1O)OC(=O)C(OC(=O)C1=CCCC1)C24 (stereo not drawn) [15-O-(1′-cyclopentenoyl)-bruceolide]
% Kill, SK-N-AS (SK-N-AS; 1 h exposure): 0%
% Kill, SK-N-AS (SK-N-AS; 24 h exposure): 0%
% Kill, LS-174T (LS-174T; 1 h exposure): 0%
% Kill, LS-174T (LS-174T; 24 h exposure): 8%
Sum [1]: 750
C38ΔL1210 [1]: 350
C38ΔCFU [1]: 400
Product [1]: 750

COC(=O)[C@@]12OC[C@]34[C@H]([C@@H](O)[C@@H]1O)[C@@]1(C)CC(=O)C(O)=C(C)[C@@H]1C[C@H]3OC(=O)[C@H](OC(=O)CC(C)(C)C)[C@@H]24 [15-O-(3′,3′-dimethylbutanoyl)-bruceolide]
% Kill, SK-N-AS (SK-N-AS; 1 h exposure): 0%
% Kill, SK-N-AS (SK-N-AS; 24 h exposure): 62%
% Kill, LS-174T (LS-174T; 1 h exposure): 7%
% Kill, LS-174T (LS-174T; 24 h exposure): 60%
Sum [1]: 800
C38ΔL1210 [1]: 450
C38ΔCFU [1]: 350
Product [1]: 3200
